Laboratory results taken from patent US10125098B2, “Therapeutic compounds and methods of use thereof” (GENENTECH, INC., priority 2014, dated 2018).
Counter-ions that a name gives are not always drawn.

target: T1, hNav1.7 (Homo sapiens, UniProt Q15858); assay: Tritiated compound binding (LBA) to membranes from cells expressing hNav1.7 and the β1 subunit, competitive binding; details: competitive binding vs 100 pM [3H]compound, 18 h, room temperature, membranes with hNav1.7 and β1 subunit
T1 construct: expressed in transfected cells
T1 sequence (Q15858 1-1977 isoform Q15858-3): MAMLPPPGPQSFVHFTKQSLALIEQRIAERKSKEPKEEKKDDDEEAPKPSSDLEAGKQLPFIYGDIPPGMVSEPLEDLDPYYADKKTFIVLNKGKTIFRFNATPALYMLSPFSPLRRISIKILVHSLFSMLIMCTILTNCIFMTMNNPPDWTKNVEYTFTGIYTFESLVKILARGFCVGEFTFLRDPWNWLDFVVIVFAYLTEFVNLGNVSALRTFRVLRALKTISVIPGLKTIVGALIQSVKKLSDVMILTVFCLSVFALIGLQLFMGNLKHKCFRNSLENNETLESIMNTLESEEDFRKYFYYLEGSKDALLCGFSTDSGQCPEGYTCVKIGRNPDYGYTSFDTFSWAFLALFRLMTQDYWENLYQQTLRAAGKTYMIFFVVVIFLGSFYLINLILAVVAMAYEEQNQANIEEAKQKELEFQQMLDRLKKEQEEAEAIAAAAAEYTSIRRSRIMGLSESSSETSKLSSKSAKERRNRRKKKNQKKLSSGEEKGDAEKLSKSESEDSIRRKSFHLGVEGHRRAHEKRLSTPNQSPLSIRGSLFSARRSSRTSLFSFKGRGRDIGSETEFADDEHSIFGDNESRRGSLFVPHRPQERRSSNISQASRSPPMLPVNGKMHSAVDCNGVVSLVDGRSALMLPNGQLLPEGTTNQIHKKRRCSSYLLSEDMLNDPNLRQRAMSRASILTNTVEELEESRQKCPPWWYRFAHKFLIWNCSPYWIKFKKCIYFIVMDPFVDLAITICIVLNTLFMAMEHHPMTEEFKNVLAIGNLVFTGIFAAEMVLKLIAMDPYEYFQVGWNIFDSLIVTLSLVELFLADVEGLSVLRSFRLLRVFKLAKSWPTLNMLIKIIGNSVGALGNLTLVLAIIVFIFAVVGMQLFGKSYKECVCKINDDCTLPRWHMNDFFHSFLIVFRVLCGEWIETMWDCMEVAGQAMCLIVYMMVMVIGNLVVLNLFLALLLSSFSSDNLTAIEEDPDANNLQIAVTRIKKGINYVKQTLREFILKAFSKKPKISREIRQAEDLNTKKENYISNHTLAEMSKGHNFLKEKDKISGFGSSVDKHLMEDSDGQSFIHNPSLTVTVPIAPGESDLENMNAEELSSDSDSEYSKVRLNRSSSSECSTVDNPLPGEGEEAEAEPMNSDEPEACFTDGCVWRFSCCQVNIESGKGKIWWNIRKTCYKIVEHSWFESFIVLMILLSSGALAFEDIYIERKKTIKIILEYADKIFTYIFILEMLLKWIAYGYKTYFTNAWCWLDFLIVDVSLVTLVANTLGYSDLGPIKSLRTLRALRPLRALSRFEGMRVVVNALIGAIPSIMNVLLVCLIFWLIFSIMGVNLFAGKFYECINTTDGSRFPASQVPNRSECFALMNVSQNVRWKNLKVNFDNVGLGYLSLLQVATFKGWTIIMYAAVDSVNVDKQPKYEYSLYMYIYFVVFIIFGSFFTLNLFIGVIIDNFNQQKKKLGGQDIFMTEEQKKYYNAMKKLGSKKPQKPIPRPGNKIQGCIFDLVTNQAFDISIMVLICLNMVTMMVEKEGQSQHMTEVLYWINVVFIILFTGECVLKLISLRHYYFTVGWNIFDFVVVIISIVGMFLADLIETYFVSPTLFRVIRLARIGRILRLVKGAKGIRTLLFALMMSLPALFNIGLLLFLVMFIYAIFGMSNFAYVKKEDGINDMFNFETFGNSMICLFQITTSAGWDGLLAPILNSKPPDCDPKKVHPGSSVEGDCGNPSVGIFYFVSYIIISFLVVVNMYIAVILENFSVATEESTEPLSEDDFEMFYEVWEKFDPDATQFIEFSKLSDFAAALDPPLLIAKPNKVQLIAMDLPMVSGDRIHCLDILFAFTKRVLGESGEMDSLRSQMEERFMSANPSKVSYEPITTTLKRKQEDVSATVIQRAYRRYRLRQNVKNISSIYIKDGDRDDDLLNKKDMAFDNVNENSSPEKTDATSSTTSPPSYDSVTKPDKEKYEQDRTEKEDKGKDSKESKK
T1 sequence (Q07699 19-218 partner): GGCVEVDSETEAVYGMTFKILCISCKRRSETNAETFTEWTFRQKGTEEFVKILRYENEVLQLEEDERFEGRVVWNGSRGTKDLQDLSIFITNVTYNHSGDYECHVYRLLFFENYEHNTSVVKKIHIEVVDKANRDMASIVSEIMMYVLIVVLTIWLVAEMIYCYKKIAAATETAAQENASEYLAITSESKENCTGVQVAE
Procedure: Tritiated Compound Binding to Membranes
Isolated from Cells that Heterologously Express hNav1.7 and the β1 Subunit
Preparation of membranes containing recombinantly expressed sodium channels: Frozen recombinant cell pellets were thawed on ice and diluted to 4 times the cell pellet weight with ice cold 50 mM Tris HCl, pH 7.4 buffer. The cell suspensions were homogenized on ice using a motorized glass dounce homogeniser. […] The supernatants were collected and centrifuged at 10000×g at 4° C. for 50 min. The pellets were then re-suspended in 100 mM NaCl, 20 mM Tris HCl, pH 7.4 buffer containing 1% v/v protease inhibitors (Calbiochem) and re-homogenized on ice. The homogenized membranes were then processed through a syringe equipped with a 26 gauge needle. Protein concentrations were determined by Bradford Assay and the membranes were stored at −80° C.
Saturation experiments. A representative compound of formula (I) having a methyl group was tritiated. Three tritiums were incorporated in place of methyl hydrogens to generate [^3H]compound. Binding of this radioligand was performed in 5 mL borosilicate glass test tubes at room temperature. Binding was initiated by adding membranes to increasing concentrations of [^3H]compound in 100 mM NaCl, 20 mM Tris HCl, pH 7.4 buffer containing 0.01% w/v bovine serum albumin (BSA) for 18 h. Non-specific binding was determined in the presence of 1 μM unlabeled compound. After 18 h, the reactants were filtered through GF/C glass fiber filters presoaked in 0.5% w/v polyethylene imine. […] [^3H]compound bound to filters was quantified by liquid scintillation counting.
Binding reactions were performed in 96-well polypropylene plates at room temperature for 18 h. In 360 μL, membranes were incubated with 100 pM [^3H]compound and increasing concentrations of Test Compound. Non-specific binding was defined in the presence of 1 μM unlabeled compound. Reactions were transferred and filtered through 96-well glass fiber/C filter plates presoaked with 0.5% polyethylene imine. […] Bound radioactivity was determined by liquid scintillation counting.
Data Analysis: For saturation experiments, non-specific binding was subtracted from total binding to provide specific binding and these values were recalculated in terms of pmol ligand bound per mg protein. Saturation curves were constructed and dissociation constants were calculated using the single site ligand binding model: Beq=(Bmax*X)/(X+Kd), where Beq is the amount of ligand bound at equilibrium, Bmax is the maximum receptor density, Kd is the dissociation constant for the ligand, and X is the free ligand concentration. For competition studies percent inhibition was determined and IC50 values were calculated using a 4 parameter logistic model (% inhibition=(A+((B−A)/(1+((x/C)^D)))) using XLfit, where A and B are the maximal and minimum inhibition respectively, C is the IC50 concentration and D is the (Hill) slope.

Row | IC50 [nM] | SMILES
1 | 468 | O=C(O)[C@@H]1CCCN1C(=O)c1cc(C2CC2)c(CN2CCO[C@H](Cc3cc(Cl)cc(Cl)c3)C2)cc1F [Example 5, (S)-1-(5-cyclopropyl-4-(((R)-2-(3,5-dichlorobenzyl)morpholino)methyl)-2-fluorobenzoyl)pyrrolidine-2-carboxylic acid trifluoroacetic acid salt]
2 | 3050 | CN(C(=O)c1cc(C2CC2)c(OCC23CC4CC(CC(C4)C2)C3)cc1F)C1(C(=O)O)CC1 [Example 7, 1-(4-(adamantan-1-ylmethoxy)-5-cyclopropyl-2-fluoro-N-methylbenzamido)-cyclopropanecarboxylic acid]
3 | 1690 | CC(C)(NC(=O)c1cc(C2CC2)c(OCC23CC4CC(CC(C4)C2)C3)cc1F)C(=O)O [Example 8, 2-(4-(adamantan-1-ylmethoxy)-5-cyclopropyl-2-fluorobenzamido)-2-methylpropanoic acid]
4 | > 10000 | C[C@@H](Oc1ccc(Cl)c(Cl)c1)c1cc(F)c(C(=O)NC2(C(=O)O)CC2)cc1C1CC1 [Example 9, (R)-1-(5-cyclopropyl-4-(1-(3,4-dichlorophenoxy)ethyl)-2-fluorobenzamido)cyclopropanecarboxylic acid]
5 | 681 | COC[C@H](NC(=O)c1cc(C2CC2)c(OCC23CC4CC(CC(C4)C2)C3)cc1F)C(=O)O [Example 10, (S)-2-(4-(adamantan-1-ylmethoxy)-5-cyclopropyl-2-fluorobenzamido)-3-methoxypropanoic acid]
6 | 984 | CC1(COc2cc(F)c(C(=O)N3CCC[C@H]3C(=O)O)cc2C2CC2)CCC(F)(F)CC1 [Example 12, (S)-1-(5-cyclopropyl-4-((4,4-difluoro-1-methylcyclohexyl)methoxy)-2-fluorobenzoyl)pyrrolidine-2-carboxylic acid]
7 | 2370 | C[C@@H](Oc1ccc(Cl)c(Cl)c1)c1cc(F)c(C(=O)N2CCC[C@H]2C(=O)O)cc1C1CC1 [Example 14, (S)-1-(5-cyclopropyl-4-((R)-1-(3,4-dichlorophenoxy)ethyl)-2-fluorobenzoyl)pyrrolidine-2-carboxylic acid]
8 | 6960 | C[C@@H](Oc1cnc(C2CC2)c(Cl)c1)c1cc(F)c(C(=O)N2CCC[C@H]2C(=O)O)cc1C1CC1 [Example 15, (S)-1-(4-((R)-1-((5-chloro-6-cyclopropylpyridin-3-yl)oxy)ethyl)-5-cyclopropyl-2-fluorobenzoyl)pyrrolidine-2-carboxylic acid]
9 | 39.8 | CC1(C)CCCC(COc2cc(F)c(C(=O)N3CCC[C@H]3C(=O)O)cc2C2CC2)C1 (stereo partly drawn) [Example 16, (2S)-1-(5-cyclopropyl-4-((3,3-dimethylcyclohexyl)methoxy)-2-fluorobenzoyl)pyrrolidine-2-carboxylic acid]
10 | 554 | O=C(O)[C@@H]1CCCN1C(=O)c1cc(C2CC2)c(CN2CCC(Oc3cc(Cl)cc(OC(F)(F)F)c3)CC2)cc1F [Example 20, (S)-1-(4-((4-(3-chloro-5-(trifluoromethoxy)phenoxy)piperidin-1-yl)methyl)-5-cyclopropyl-2-fluorobenzoyl)pyrrolidine-2-carboxylic acid trifluoroacetic acid salt]
11 | 359 | CC1(COc2cc(F)c(C(=O)N3CCC[C@H]3C(=O)O)cc2C2CC2)CN(c2cc(C(F)(F)F)c(Cl)cn2)C1 [Example 21, (S)-1-(4-((1-(5-chloro-4-(trifluoromethyl)pyridin-2-yl)-3-methylazetidin-3-yl)methoxy)-5-cyclopropyl-2-fluorobenzoyl)pyrrolidine-2-carboxylic acid trifluoroacetic acid salt]
12 | 2730 | O=C(O)[C@@H]1CCCN1C(=O)c1cc(Cl)c(Oc2cnc(OCC(F)(F)F)c(Cl)c2)cc1F [Example 24, (S)-1-(5-chloro-4-((5-chloro-6-(2,2,2-trifluoroethoxy)pyridin-3-yl)oxy)-2-fluorobenzoyl)pyrrolidine-2-carboxylic acid trifluoroacetic acid salt]
13 | 18.1 | O=C(O)[C@@H]1CCCN1C(=O)c1cc(C2CC2)c(OCC2CCN(C(c3ccccc3)c3cc(Cl)cc(Cl)c3)CC2)cc1F (stereo partly drawn) [Example 26, (2S)-1-(5-cyclopropyl-4-((1-((3,5-dichlorophenyl)(phenyl)methyl)piperidin-4-yl)methoxy)-2-fluorobenzoyl)pyrrolidine-2-carboxylic acid trifluoroacetic acid salt]
14 | 17.6 | CC1(COc2cc(F)c(C(=O)N3CCC[C@H]3C(=O)O)cc2C2CC2)CN(C(c2ccccc2)c2cc(Cl)cc(Cl)c2)C1 (stereo partly drawn) [Example 28, (2S)-1-(5-cyclopropyl-4-((1-((3,5-dichlorophenyl)(phenyl)methyl)-3-methylazetidin-3-yl)methoxy)-2-fluorobenzoyl)pyrrolidine-2-carboxylic acid trifluoroacetic acid salt]

The remaining lines, values behind:

Row | SMILES | IC50 [nM]
15 | O=C(O)[C@H]1CCCN1C(=O)c1cc(C2CC2)c(OCC23CC4CC(CC(C4)C2)C3)cc1F [Example 2, (R)-1-(4-(adamantan-1-ylmethoxy)-5-cyclopropyl-2-fluorobenzoyl)pyrrolidine-2-carboxylic acid] | 426
16 | CC12CC3(C)CC(C)(C1)CC(COc1cc(F)c(C(=O)N4CCC[C@H]4C(=O)O)cc1C1CC1)(C2)C3 [Example 3, (S)-1-(5-cyclopropyl-2-fluoro-4-((3,5,7-trimethyladamantan-1-yl)methoxy)benzoyl)pyrrolidine-2-carboxylic acid] | 8.9
17 | O=C(O)[C@@H]1CCCN1C(=O)c1cc(C2CC2)c(OCC23CC4(F)CC(F)(CC(F)(C4)C2)C3)cc1F [Example 4, (5)-1-(5-cyclopropyl-2-fluoro-4-((3,5,7-trifluoroadamantan-1-yl)methoxy)benzoyl)pyrrolidine-2-carboxylic acid] | 817
18 | O=C(O)[C@@H]1CCCN1C(=O)c1cc(C2CC2)c(OCC2CCCCC2)cc1F [Example 13, (S)-1-(4-(cyclohexylmethoxy)-5-cyclopropyl-2-fluorobenzoyl)pyrrolidine-2-carboxylic acid] | 173
19 | CC(C)c1cc(C(=O)N2CCC[C@H]2C(=O)O)c(F)cc1OCC12CC3CC(CC(C3)C1)C2 [Example 17, (S)-1-(4-(adamantan-1-ylmethoxy)-2-fluoro-5-isopropylbenzoyl)pyrrolidine-2-carboxylic acid] | 87.2
20 | O=C(O)[C@@H]1CCCN1C(=O)c1cc(C2CC2)c(O[C@H]2C3CC4CC2C[C@](F)(C4)C3)cc1F [Example 18, (S)-1-(5-cyclopropyl-2-fluoro-4-(((1R,2s,3S,5R,7R)-5-fluoroadamantan-2-yl)oxy)benzoyl)pyrrolidine-2-carboxylic acid] | 4500
21 | O=C(O)[C@@H]1CCCN1C(=O)c1cc(C2CC2)c(CN2[C@@H]3CC[C@H]2C[C@@H](Oc2cc(Cl)cc(OC(F)(F)F)c2)C3)cc1F [Example 19, (S)-1-(4-(((1R,3S,5S)-3-(3-chloro-5-(trifluoromethoxy)phenoxy)-8-azabicyclo[3.2.1]octan-8-yl)methyl)-5-cyclopropyl-2-fluorobenzoyl)pyrrolidine-2-carboxylic acid trifluoroacetic acid salt] | 443
22 | O=C(O)[C@@H]1CCCN1C(=O)c1cc(F)c(Oc2ccc(Cl)cc2-c2ccccc2)cc1F [Example 22, (S)-1-(4-((5-chloro-[1,1′-biphenyl]-2-yl)oxy)-2,5-difluorobenzoyl)pyrrolidine-2-carboxylic acid] | > 10000
23 | O=C(O)[C@@H]1CCCN1C(=O)c1ccc(OCC23CC4CC(CC(C4)C2)C3)c(Cl)c1 [Example 23, (S)-1-((4-(adamantan-1-ylmethoxy))-3-chlorobenzoyl)pyrrolidine-2-carboxylic acid] | 3960
24 | Nc1noc2ccc(-c3cc(Cl)ccc3Oc3cc(F)c(C(=O)N4CCC[C@H]4C(=O)O)cc3F)cc12 [Example 25, (S)-1-(4-(2-(3-aminobenzo[d]isoxazol-5-yl)-4-chlorophenoxy)-2,5-difluorobenzoyl)pyrrolidine-2-carboxylic acid trifluoroacetic acid] | > 10000
25 | O=C(O)[C@@H]1CCCN1C(=O)c1cc(C2CCC2)c(OCC23CC4CC(CC(C4)C2)C3)cc1F [Example 27, (S)-1-(4-(adamantan-1-ylmethoxy)-5-cyclobutyl-2-fluorobenzoyl)pyrrolidine-2-carboxylic acid] | 21.7
